Laboratory results from patent publication US20240165096A1, “Anti Viral Therapy” (priority 2021, published 2024).
Counter-ions that a name gives are not always drawn. Like-named read-outs stand apart in the source and are kept apart here.

Assays:
SARS-COV-2 [1] = conditions: 5 μM, Calu3 and Vero cells, MOI 0.1, CPE 3 days post infection
SARS-COV-2 [2] = assay type: cell-based
SARS-COV-2 [3] = test: microbe, parasite or virus in culture; assay type: cell-based; conditions: for decrease in the amount of virus released from infected Calu3 cells: pretreatment 24 h, PHE strain MOI 0.1, plaque assay; for IC50: Severe acute respiratory syndrome coronavirus 2, Calu-3, drug alone, infected Calu3 cells, pre-treated 24 hours prior to infection, 6 concentrations
SARS-COV-2 [4] = test: microbe, parasite or virus in culture; conditions: Severe acute respiratory syndrome coronavirus 2, Calu-3, in Homo sapiens, read-out: protection from infection of SARS-COV-2 (percent inhibition of CPE)
Vero cells = system: Vero cells
Protocol: (§1) Compounds were acoustically transferred into black 384 well optical bottom plates (Nunc-UK). Calu-3 and Vero cells were maintained as described for the infection assay and seeded in the assay-ready plates at a density of 3×10^3 cells/well for Vero cells, and 9×10^3 cells/well for Calu-3 cells. Plates were incubated for 72 h at 37° C. and 5% CO2. To assess cell toxicity, CellTox™ Green Cytotoxicity Assay (Promega-UK) was undertaken following the manufacturer's instructions. Plates were incubated for 15 min prior to recording fluorescence (480/520 nm) using a […] (CLARIOstar Plus; BMG LABTECH, UK).

Calu3 cells = system: Calu3 cells
Protocol: as §1

SARS-COV-2 NSP12 RNA = test: RT-qPCR of viral NSP12 RNA in infected Calu3 cells; assay type: cell-based

With `O=C(O)COCCN1CCN([C@H](c2ccccc2)c2ccc(Cl)cc2)CC1` [Levocetirizine Dihydrochloride] the “IFNλ release and/or activity (expression)” value (“IFNλ release and/or activity” for short) (IFNλ) was “enhanced IFNλ release and/or activity” and the SARS-COV-2-mediated cytotoxicity (IFNλ) was “failed to inhibit cytotoxicity”.

`CN1CCC(=C2c3ccccc3C=Cc3ccccc32)CC1` [Cyproheptadine] was tested, and the “antiviral effects in the screens” value (SARS-COV-2 [1]) was “did not show any antiviral effects”.

In the case of `CCC(CC)COC(=O)[C@H](C)N[P@](=O)(OC[C@H]1O[C@@](C#N)(c2ccc3c(N)ncnn23)[C@H](O)[C@@H]1O)Oc1ccccc1` [Remdesivir], the “reduction of virus growth kinetics” value (SARS-COV-2 [2]) is reported as 10^3 PFU/mL, the “reduction in viral titres relative to the DMSO control” value (SARS-COV-2 [2]; donor #311, 1 μM) is reported as 1.47 log10 and the “decrease in the amount of virus released from infected Calu3 cells” value (shortened to “decrease in the amount of virus released”) (SARS-COV-2 [3]; 1 μM) is reported as roughly 5000 fold. It also gave an IC50 (SARS-COV-2 [3]) of roughly 190 nM.

With `CN1CCC(=C2c3ccccc3CCc3cccnc32)CC1` [Azatadine] the inhibition at 5 µM (SARS-COV-2 [4]) was no less than 90%, the “reduction of virus growth kinetics” value (SARS-COV-2 [2]) was 10^2 PFU/mL and the “SARS-COV-2 titres following treatment” value (SARS-COV-2 [2]; donor #311, 25 μM) was “no difference”. The “IFNλ release and/or activity” value (IFNλ) was “enhanced the release and/or activity of IFNλ”, the SARS-COV-2-mediated cytotoxicity (IFNλ) was “robustly inhibited” and the “rank among interferon-enhancing drugs” value (IFNλ) was “top 1%”. The “IFNλ release and/or activity” value (IFNλ; listed as Azatadine maleate) was “increase IFN-λ expression”, the “decrease in the amount of virus released” value (SARS-COV-2 [3]; 5 μM) was roughly 100 fold and the “decrease in the amount of virus released” value (SARS-COV-2 [3]; 25 μM) was roughly 5000 fold. The IC50 (SARS-COV-2 [3]) was roughly 4900 nM, the “levels of mature infectious viral particles released from infected cells” value (SARS-COV-2 [3]; both concentrations (5 and 25 μM), plaque assay) was “substantially reduced” and the “cytotoxicity on Vero cells” value (Vero cells) was “not cytotoxic”. For the same molecule, the “cytotoxicity on Calu3 cells” value (Calu3 cells) was “not cytotoxic”, the “reduction of viral NSP12 RNA levels” value (SARS-COV-2 NSP12 RNA; 5 μM, infected Calu3 cells) was roughly 50% and the “levels of viral NSP12 RNA” value (SARS-COV-2 NSP12 RNA; both concentrations (5 and 25 μM), RT-qPCR) was “substantially reduced”.
